Test results: the NIST ThermoML archive (doi:10.1016/j.jct.2018.02.016)
± gives the expanded uncertainty stated by the source.

Conditions: Gas chromatography

C1C2CC3CC1CC(C2)C3 [adamantane]
Liquid
Conditions | vapor or sublimation pressure [kPa]
298.15 K | 0.13
310 K | 0.26
320 K | 0.46
330 K | 0.77
340 K | 1.3
350 K | 2
360 K | 3.1 ± 1.4
370 K | 4.6 ± 1.8
380 K | 6.8 ± 2.3
390 K | 9.8 ± 2.9
400 K | 14 ± 3
410 K | 19 ± 4
420 K | 26 ± 5
430 K | 35 ± 5
440 K | 46 ± 6
545 K | 460 ± 46
555 K | 550 ± 55
565 K | 650 ± 65
575 K | 760 ± 76

CC1=CC[C@@]23C[C@@H]1C(C)(C)[C@@H]2CC[C@H]3C [alpha-cedrene]
Metastable liquid
Conditions | vapor or sublimation pressure [kPa]
298.15 K | 0.0031
310 K | 0.0081
320 K | 0.017
330 K | 0.035 ± 0.017
340 K | 0.067 ± 0.03
350 K | 0.12 ± 0.051
360 K | 0.22 ± 0.082
370 K | 0.37 ± 0.12
380 K | 0.61 ± 0.17
390 K | 0.99 ± 0.23
400 K | 1.5 ± 0.3
410 K | 2.4 ± 0.38
420 K | 3.5 ± 0.49
430 K | 5.1 ± 0.65
440 K | 7.3 ± 0.89
533.2 K | 101.3 ± 10

C1C2CC3C4CC5CC(C14)C(C2)C3C5 [pentacyclo[7.3.1.1(4,12).0(2,7).0(6,11)]tetradecane]
Metastable liquid
Conditions | vapor or sublimation pressure [kPa]
298.15 K | 0.0016
310 K | 0.0043
320 K | 0.0091
330 K | 0.018
340 K | 0.036
350 K | 0.066
360 K | 0.12
370 K | 0.2
380 K | 0.34
390 K | 0.55
400 K | 0.87 ± 0.42
410 K | 1.3 ± 0.61
420 K | 2 ± 0.83
430 K | 3 ± 1.1
440 K | 4.3 ± 1.5
516 K | 44.3 ± 4.4
526 K | 56 ± 5.6
536 K | 71 ± 7.1
546 K | 89 ± 8.9

C=C1CC[C@@]23C[C@@H]1C(C)(C)[C@@H]2CC[C@H]3C [beta-cedrene]
Metastable liquid
Conditions | vapor or sublimation pressure [kPa]
298.15 K | 0.0031
310 K | 0.0081
320 K | 0.017
330 K | 0.035 ± 0.017
340 K | 0.067 ± 0.03
350 K | 0.12 ± 0.051
360 K | 0.21 ± 0.081
370 K | 0.37 ± 0.12
380 K | 0.61 ± 0.17
390 K | 0.99 ± 0.23
400 K | 1.5 ± 0.3
410 K | 2.3 ± 0.38
420 K | 3.5 ± 0.49
430 K | 5.1 ± 0.65
440 K | 7.3 ± 0.89
533.3 K | 101.3 ± 10
